The values below come from ChEMBL document CHEMBL1150724, “In vitro antiviral activity of dammar resin triterpenoids” (J Nat Prod, 1987).

Converted amounts (≈) assume the structure as drawn.

For orientation: IC50 means the midpoint of a concentration-inhibition curve.

One experiment concerns Human alphaherpesvirus 1. The experiment is described as follows: Antiviral activity against HSV1 MacIntyre replication in african green monkey Vero cells assessed as inhibition of virus-induced cytopathic effect after 48 hrs. The class given is functional, organism-based. Particulars: Human alphaherpesvirus 1, MacIntyre. (Protection from cytopathic effect is a common read-out in antiviral testing.)

A further experiment deals with Human alphaherpesvirus 2. The experiment is described as follows: Antiviral activity against HSV2 MS replication infected in african green monkey Vero cells assessed as inhibition of virus-induced cytopathic effect after 48 hrs. The note with it: Human alphaherpesvirus 2, MS. The class given is functional, organism-based.

As to `C=C(CCC=C(C)C)[C@H]1CC[C@]2(C)[C@@H]1CC[C@@H]1[C@@]3(C)CC[C@H](O)C(C)(C)[C@@H]3CC[C@]12C` [DAMMARADIENOL], the half-inhibitory concentration (IC50) in the experiment with Human alphaherpesvirus 1 is 2.5 µg/mL (≈ 5.86 µM); in the experiment on Human alphaherpesvirus 2 it was 3 µg/mL (≈ 7.03 µM).

On to `CC(C)=CCC[C@](C)(O)[C@H]1CC[C@]2(C)[C@@H]1CC[C@@H]1[C@@]3(C)CC[C@H](O)C(C)(C)[C@@H]3CC[C@]12C`, for which the IC50 with Human alphaherpesvirus 1 and with Human alphaherpesvirus 2 was 7 µg/mL (≈ 15.7 µM) throughout.

Consider `C[C@H]1[C@H](C)CC[C@]2(C(=O)O)CC[C@]3(C)C(=CC[C@@H]4[C@@]5(C)CCC(=O)C(C)(C)[C@@H]5CC[C@]43C)[C@H]12` [URSONIC ACID], for which the IC50 with Human alphaherpesvirus 1 is 2.5 µg/mL (≈ 5.5 µM); with Human alphaherpesvirus 2, 8 µg/mL (≈ 17.6 µM).

In the case of `C=C(C)[C@@H]1CC[C@]2(C)[C@H](CC[C@@H]3[C@@H]([C@]4(C)CC[C@H](C(C)(C)O)O4)CC[C@]32C)[C@@]1(C)CCC(=O)O` [SHOREIC ACID], the IC50 with Human alphaherpesvirus 1 worked out at 7 µg/mL (≈ 14.7 µM); with Human alphaherpesvirus 2 it was 8 µg/mL (≈ 16.9 µM).

With `CC(C)=CCC[C@@](C)(O)[C@H]1CC[C@]2(C)[C@@H]1CC[C@@H]1[C@@]3(C)CCC(=O)C(C)(C)[C@@H]3CC[C@]12C`, the IC50 with Human alphaherpesvirus 1 worked out at 2 µg/mL (≈ 4.52 µM); with Human alphaherpesvirus 2, 5 µg/mL (≈ 11.3 µM).

As to `C=C(C)[C@@H]1CC[C@]2(C)[C@H](CC[C@@H]3[C@@H]([C@]4(C)CC[C@@H](C(C)(C)O)O4)CC[C@]32C)[C@@]1(C)CCC(=O)O` [EICHLERIANIC ACID], the values for the IC50 in the experiment on Human alphaherpesvirus 1 and in the experiment on Human alphaherpesvirus 2 were 7 µg/mL (≈ 14.7 µM) and 8 µg/mL (≈ 16.9 µM), respectively.

Consider `CC(C)(O)[C@H]1CC[C@@]2(C)C1CC[C@]1(C)[C@@H]2CC[C@@H]2[C@@]3(C)CCC(=O)C(C)(C)[C@@H]3CC[C@]21C` (stereo partly drawn) [HYDROXYHOPANONE], for which the IC50 amounted to 7 µg/mL (≈ 15.8 µM) in the experiment on Human alphaherpesvirus 1 and 5 µg/mL (≈ 11.3 µM) with Human alphaherpesvirus 2.

With `CC1(C)CC[C@@]23CC[C@]4(C)[C@@](OC2=O)([C@@H]3C1)[C@@H](O)C[C@@H]1[C@@]2(C)CCC(=O)C(C)(C)[C@@H]2CC[C@]14C`, the IC50 in the experiment on Human alphaherpesvirus 1 and in the experiment with Human alphaherpesvirus 2 was 5 µg/mL (≈ 10.6 µM) in each case.

Regarding `C=C(C)[C@@H]1CC[C@]2(C)[C@H](CC[C@@H]3[C@@H]([C@@](C)(O)CCC=C(C)C)CC[C@]32C)[C@@]1(C)CCC(=O)O` [DAMMARENOLIC ACID], the IC50 in the experiment on Human alphaherpesvirus 1 was determined as 3 µg/mL (≈ 6.54 µM); with Human alphaherpesvirus 2, 2 µg/mL (≈ 4.36 µM).
